Measurements published in patent US20120264928A1, “THERAPEUTIC PHARMACEUTICAL AGENT FOR DISEASES ASSOCIATED WITH DECREASE IN FUNCTION OF GNE PROTEIN, FOOD COMPOSITION, AND FOOD ADDITIVE” (JAPAN HEALTH SCIENCES FOUNDATION, priority 2009, published 2012).

Experiments:
[1] = test system: DMRV model mice; experiment: Muscle contraction test; format: in vivo; conditions: vs placebo group
Description: (§1) 20 mg/kg body weight/day of ManNAc (N=6), NeuAc (N=5), or sialyllactose (N=7) dissolved in drinking water was administered to the DMRV model mice between 11- to 15-week old and 56- to 58-week old for 43 to 45 weeks. 40 mg (N=5) or 400 mg/kg body weight/day (N=4) of Ac4ManNAc dissolved in drinking water was administered to the DMRV model mice of the same ages for 43 to 47 weeks. Drinking water free of the pharmaceutical agents was supplied to mice in a placebo group.
(§2) During the administration of the pharmaceutical agent, the measurement of the body weight, the determination of the survival rate, blood collection (0, 25, and 49 days after the start of administration, and thereafter at intervals of 28 days), and a hanging test (0 and 49 days after the start of administration, and thereafter at intervals of 56 days) were performed at regular intervals. Survivors after the administration (ManNAc-treated group: N=5, NeuAc-treated group: N=5, sialyllactose group: N=6) were subjected to a treadmill test. A muscle tissue was then excised and was subjected to a muscle contraction test, the measurement of the amount of NeuAc, and pathological observation.
After pentobarbital sodium (40 mg/kg body weight) was intraperitoneally administered to a mouse for anesthesia, a continuous muscle tissue of the tibialis anterior muscle and the gastrocnemius muscle was isolated. A terminal tendon of the isolated muscle tissue and the tibia were tied with a thread. The ends of the thread were connected at right angles to a tube for hanging a thread (a muscle length controller) and an isotonic transducer (TB-651T (for the gastrocnemius muscle) or TB-653TD-112S (for the tibialis anterior muscle), Nihon Kohden Corp.). The muscle tissue was placed in a lactated Ringer's solution (95% O2, 5% CO2). An electrostimulator (SEN-3301, Nihon Kohden Corp.) and an amplifier (PP-106H, Nihon Kohden Corp.) were used to expand the muscle tissue while providing 400 μs twitch stimulation. A length (L0) at which the maximum contractile force was produced and the contractile force (isometric contractile force: Pt) at that length were measured. While the muscle tissue was held at the length (L0) at which the contractile force was produced, the electrical stimulation was […] to 3 ms. The maximum contractile force (P0) was determined while 10- to 1000-Hz repetitive stimulation was provided 300 to 600 times at intervals of 2 minutes or more. After the measurement, the average cross-sectional area (CSA: muscle weight/L0) of the muscle tissue was calculated.

[2] = test system: primary cultured cells of myotubes derived from the DMRV human patients; experiment: Amount of NeuAc by HPLC in myotubes from DMRV human patients; format: cell-based; conditions: three days, N=3
From the text: DMRV human patients are adult patients that have been diagnosed with DMRV by means of GNE gene mutation screening. (Number of patients: 42, the age of the onset of the disease: 20 to 30, sex: male and female) In accordance with a protocol approved by National Center of Neurology and Psychiatry, after obtaining informed consent, skeletal muscles (biceps brachii muscles and anterior tibial muscles) were collected from these patient volunteers under local anesthesia by means of biopsy.
The skeletal muscle tissues collected from the DMRV human patients or the model mice were lightly washed with PBS or Hank's balanced saline and were treated with 0.25% trypsin for 5 minutes. The tissues were finely cut into several millimeters with ophthalmic scissors, were digested with 0.4% collagenase II/0.25% trypsin at 37° C. for 30 minutes, and were left still to collect supernatant. The precipitate was again treated with the enzyme liquid. After being left still, the precipitate was well suspended in a DMEM-Ham's F-12 culture medium. The tissue suspension was passed through a nylon mesh to remove the tissues. The washings and the supernatant were centrifuged to collect cells. The cells thus collected were plated on a DMEM-Ham's F-12 culture medium at a cell density of 10^6 in a 100-mm plastic dish and were cultured at 37° C. in 5% CO2 for 4 to 7 days.
In the case that the sample was cultured cells, the cells were washed with PBS three times, and 400 p. 1 of 50 mM sulfuric acid was added to the cells. The cells were incubated at 80° C. for 60 minutes and were hydrolyzed to release NeuAc and NeuGc. In the case that the sample was a piece of tissue, the tissue was frozen, was pulverized with an air hammer, and was homogenized in a KCl-tris solution. […] The fluorescent derivative thus prepared was analyzed with HPLC (JASCO Corp.) using 0.05 to 5 nmol/μl Neu5Ac and Neu5Gc standards. The amount of protein from the tissue was measured with a Bio-Rad Protein Assay kit (Bio-Rad Laboratories).
[…] The amount of NeuAc in the cultured cells was measured by the HPLC method described above (N=3).

[3] = test system: DMRV model mice; experiment: Treadmill test, motor ability test; format: in vivo; conditions: vs placebo group
Description: as §1, §2
(§3) In order to familiarize a mouse with the apparatus, training was started one week prior to testing. In this period, the mouse was made to run on a slope of 7 degrees at a velocity in the range of 5 to 15 m/min for 30 minutes every day for 7 days. As a motor ability test, the velocity was increased by 10 m/min per minute from the initial velocity of 20 m/min. The accumulated running distance up to the point where the mouse could not run anymore was measured. As an endurance test, a mouse was made to run on a slope of 7 degrees at a velocity of 20 m/min for 60 minutes. The mouse was then made to run for another 3 minutes, during which the times of the electrical stimulation given to the mouse by a stimulation grid disposed at the end of the running lane were measured.

[4] = test system: DMRV model mice; experiment: Treadmill test, endurance test; format: in vivo; conditions: vs placebo group
Description: as §1, §2, §3

[5] = 20 mg/kg body weight/day in drinking water
[6] = final concentration 0.005, 0.05, 0.5 or 5 mM

Row | Structure (SMILES) | specific contractile force of the gastrocnemius muscle ([1]; 40 mg/kg) | Pt per cross-sectional area of the muscle ([1]; 400 mg/kg) | specific contractile force of the gastrocnemius muscle ([1]; 400 mg/kg) | amount of NeuAc in the cells ([2]; final concentration 0.0002, 0.002, 0.02 or 0.2 mM) | accumulated running distance ([3]; 400 mg/kg) | times of electrical stimulation for 3 minutes ([4]; 40 mg/kg) | times of electrical stimulation for 3 minutes ([4]; 400 mg/kg) | Pt per cross-sectional area of the muscle [1, 5] | cross-sectional area of the gastrocnemius muscle [1, 5] | specific contractile force of the gastrocnemius muscle (P0 per cross-sectional area of the muscle) [1, 5] | amount of NeuAc in the cells [2, 6] | accumulated running distance [3, 5] | times of electrical stimulation for 3 minutes [4, 5]
1 | CC(=O)N[C@@H]1C(OC(C)=O)O[C@H](COC(C)=O)[C@@H](OC(C)=O)[C@@H]1OC(C)=O (stereo partly drawn) [Ac4ManNAc, Tetra-O-acetyl-N-acetylmannosamine] | significantly higher | significantly higher | significantly higher | effective in increasing the amount of NeuAc at low concentrations in a manner that depended on its dose | significantly higher | significantly lower | significantly lower | – | – | – | – | – | –
2 | CC(=O)N[C@@H]1C(O)O[C@H](CO)[C@@H](O)[C@@H]1O (stereo partly drawn) [ManNAc, N-acetylmannosamine, reference compound] | – | – | – | – | – | – | – | significantly higher | significantly higher | significantly higher | effective in increasing the amount of NeuAc in the cells in a manner that depended on their doses | significantly higher | significantly lower
3 | CC(=O)N[C@H]1[C@H]([C@H](O)[C@H](O)CO)OC(O)(C(=O)O)C[C@@H]1O (stereo partly drawn) [NeuAc, N-acetylneuraminic acid] | – | – | – | – | – | – | – | significantly higher | significantly higher | significantly higher | effective in increasing the amount of NeuAc in the cells in a manner that depended on their doses | significantly higher | significantly lower
4 | CC(=O)N[C@H]1[C@H]([C@H](O)[C@H](O)CO)O[C@@](O[C@H]2[C@@H](O)[C@@H](CO)O[C@@H](O[C@H]3[C@H](O)[C@@H](O)C(O)O[C@@H]3CO)[C@@H]2O)(C(=O)O)C[C@@H]1O (stereo partly drawn) [sialyllactose, NeuAcα2-3Galβ1-4Glc] | – | – | – | – | – | – | – | significantly higher | significantly higher | significantly higher | – | significantly higher | significantly lower
